Data as given in PubChem BioAssay (NCI).
“And” between values parts separate entries of the source, which are not always exact repeats. Equal values may be shown once.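 Tested at 5 concentrations; 48 h exposure; 96-well plates; endpoints linearly interpolated, else capped at highest concentration. GI50 is the concentration that inhibits growth by half. At the TGI there is no net growth.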

Tests used:
Assay in all cases: NCI-60 cell line screen, 48 h
CAKI-1 renal = tested on: CAKI-1 renal
DU-145 prostate = tested on: DU-145 prostate
SN12C renal = tested on: SN12C renal
OVCAR-5 ovarian = tested on: OVCAR-5 ovarian
MALME-3M melanoma = tested on: MALME-3M melanoma
OVCAR-3 ovarian = tested on: OVCAR-3 ovarian
OVCAR-8 ovarian = tested on: OVCAR-8 ovarian
BT-549 breast = tested on: BT-549 breast
A549 NSCLC = tested on: A549 NSCLC
EKVX NSCLC = tested on: EKVX NSCLC

Structure (SMILES) | GI50 (CAKI-1 renal) | TGI (CAKI-1 renal) | GI50 (DU-145 prostate) | TGI (DU-145 prostate) | GI50 (SN12C renal) | TGI (SN12C renal) | GI50 (OVCAR-5 ovarian) | TGI (OVCAR-5 ovarian) | GI50 (MALME-3M melanoma) [µM] | TGI (MALME-3M melanoma) [µM] | GI50 (OVCAR-3 ovarian) | TGI (OVCAR-3 ovarian) | GI50 (OVCAR-8 ovarian) | TGI (OVCAR-8 ovarian) | GI50 (BT-549 breast) | TGI (BT-549 breast) | GI50 (A549 NSCLC) | TGI (A549 NSCLC) | TGI (EKVX NSCLC) | GI50 (EKVX NSCLC)
Nc1nc(Nc2ccc3c(c2)CCC(N2CCCC2)CC3)nn1-c1cc2c(nn1)-c1ccccc1CCC2 (stereo unspecified) | 0.531 µM | 2.05 µM | 1.04 µM | 2.36 µM | 0.378 µM | 1.81 µM | 1.39 µM | 2.76 µM | 1.42 | 3.09 | 1.4 µM | 2.93 µM | 1.14 µM | 2.85 µM | 1.52 µM | 3.01 µM | 1.32 µM | 2.92 µM | – | –
CC12CCC(O)CC1CCC1C2CCC2(C)C(C3=CC(=O)OC3)CCC12 (stereo unspecified) | > 55.7 µM | > 100 µM | 42.4 µM | > 100 µM | 53.8 µM | > 100 µM | > 100 µM | > 100 µM | 26.3 | > 90.1 | > 86.6 µM | > 100 µM | 16.9 µM | > 100 µM | 11.2 µM | > 95.3 µM | 21.8 µM | > 100 µM | – | –
Cc1nc2ccc(NCCN(C)C)c3c(=O)c4cc(O)ccc4n1c23 | – | 3.94 µM | – | 4.93 µM | – | 4.93 µM | – | 6.05 µM | – | 9.06 | – | 9.94 µM | – | 2.37 µM | – | 19 µM | – | 3.39 µM | – | –
Cc1nn(C)c(=S)n(C)c1=O | – | – | – | – | – | 43.4 µM | – | 53.8 µM | – | 37.2 | – | > 100 µM | – | 27.3 µM | – | – | – | 23.8 µM | 44.9 µM | –
CC1(CO)C(=O)OC12CCCCC2 (stereo unspecified) | – | > 100 µM | – | – | – | > 100 µM | – | – | – | > 100 | – | > 100 µM | – | > 100 µM | – | – | – | > 100 µM | > 100 µM | –
CN(Cc1ccccc1)C1(N(C)Cc2ccccc2)CC1 | – | > 100 µM | – | – | – | > 100 µM | – | > 100 µM | – | > 100 | – | > 100 µM | – | > 100 µM | – | – | – | > 100 µM | > 100 µM | –
NC(=S)N/N=C(\C(=O)Nc1ccc(Cl)c(Cl)c1)C1=NN(c2ccccc2)C(c2cccc([N+](=O)[O-])c2)CC1=O (stereo unspecified) | – | > 100 µM | – | – | – | 38.5 µM | – | > 100 µM | – | > 100 | – | 51.4 µM | – | > 100 µM | – | – | – | > 100 µM | > 100 µM | –
CC1=C(c2cc(C(=O)Nc3cccc(C(F)(F)F)c3)nc(NC#N)n2)Sc2ccccc2N1 | – | > 100 µM | – | – | – | > 100 µM | – | > 100 µM | – | > 100 | – | > 100 µM | – | – | – | – | – | > 100 µM | > 100 µM | –
COc1cc(C(CC(OC)OC)=C(C#N)C#N)cc(OC)c1OC | – | > 100 µM | – | – | – | > 100 µM | – | > 100 µM | – | 76.9 | – | 73 µM | – | 73 µM | – | – | – | > 100 µM | > 100 µM | –
COc1ccc(-c2nn(-c3cccc(NC(=O)Nc4cccc(C(F)(F)F)c4)c3)cc2-c2ccncc2)cc1Cl | 1.77 µM | > 100 µM | 3.56 µM | > 100 µM | 2.4 µM | > 100 µM | 3.73 µM | > 100 µM | 2.07 | 8.72 | – | – | 1.7 µM | 10.4 µM | 1.68 µM | 4.55 µM | 1.83 µM | > 100 µM | – | –
COC(=O)c1cc2c(cc1Cl)SC(N(N(C)C)S(=O)(=O)c1ccc(Cl)cc1)=NS2(=O)=O | 21.3 µM | 46.1 µM | 13.7 µM | 26.6 µM | 19.2 µM | 47.7 µM | 20.1 µM | 46.7 µM | 13.8 | 40 | 13 µM | 37.8 µM | – | – | – | – | 17.2 µM | > 100 µM | 33 µM | 17 µM
c1ccc2c(c1)ccc1c3ccccc3ccc21 | > 50 µM | > 50 µM | > 50 µM | > 50 µM | > 50 µM | > 50 µM | > 50 µM | > 50 µM | > 50 | > 50 | > 50 µM | > 50 µM | > 50 µM | > 50 µM | > 50 µM | > 50 µM | > 50 µM | > 50 µM | – | –
COc1ccc(/C=C/C(C(=O)O)C(=O)O)cc1 | – | > 100 µM | – | – | – | > 100 µM | – | > 100 µM | – | > 100 | – | > 100 µM | – | > 100 µM | – | – | – | > 100 µM | > 100 µM | –
C=C1C(=O)O[C@H]2[C@H]1CC(=O)/C(C)=C\CC[C@@]1(C)O[C@@H]21 | 1.19 µg/mL | 3.45 µg/mL | 3.44 µg/mL | 7.11 µg/mL | 4.17 µg/mL | 8.4 µg/mL | 4.16 µg/mL | 8.24 µg/mL | – | – | 0.795 µg/mL | 3.71 µg/mL | 3.98 µg/mL | 7.81 µg/mL | 3.41 µg/mL | 7 µg/mL | 5.21 µg/mL | 11.3 µg/mL | 8.03 µg/mL | 4 µg/mL
CN(C)CCNC(=O)c1cccc2c1nc(-c1ccccn1)c1ccccc12 | – | 61.9 µM | – | – | – | > 100 µM | – | 38.1 µM | – | – | – | 38.6 µM | – | 34.5 µM | – | – | – | 27.9 µM | 65.2 µM | –
N#Cc1nc(Nc2ccc([N+](=O)[O-])cc2)sc1N | – | 56.7 µM | – | – | – | > 74.6 µM | – | > 100 µM | – | > 91.4 | – | > 69.4 µM | – | > 100 µM | – | – | – | > 100 µM | > 100 µM | –
C=CCNc1cccc2c1C(=O)c1ccccc1C2(O)CC=C (stereo unspecified) | – | – | 24.9 µM | 63 µM | 20.2 µM | 43 µM | 31.5 µM | 67.9 µM | – | – | – | – | 19.5 µM | 47.1 µM | 19.3 µM | 42.7 µM | 23.7 µM | 69 µM | > 100 µM | 31.8 µM
CC1=N/C(=C\c2cccc3ccccc23)C(=O)O1 | – | – | – | – | – | > 100 µM | – | > 100 µM | – | > 100 | – | – | – | > 100 µM | – | – | – | > 100 µM | > 100 µM | –
CCCCCCCCCC(=O)N[C@H]1CCc2cc(OC)c(OC)c(OC)c2-c2ccc(SC)c(=O)cc21 | 5.27 µM | > 100 µM | – | – | – | 19.6 µM | – | > 100 µM | – | – | – | 0.0477 µM and 0.03 µM | – | – | – | – | – | > 100 µM | 9.55 µM | –
Cc1ccc(N(C(=O)CC(=O)N2N=C(c3ccccc3)C(N=Nc3ccc([N+](=O)[O-])cc3)C2=O)C(=O)c2ccc(Cl)cc2)cc1 (stereo unspecified) | – | > 76.8 µM | – | – | – | > 81.1 µM | – | > 45.3 µM | – | > 100 | – | > 91.6 µM | – | 38.3 µM | – | – | – | > 51.8 µM | > 100 µM | –
